Reference: paper PMC6271338, “Synthesis and Cytotoxic Evaluation of Alkoxylated Chalcones” (Molecules, 2014)

Experiments:
[1] = Cytotoxicity (SRB) against non-tumoral HMLE cells; type: cell-based, human; settings: human, HMLE cells (non-tumoral human mammary epithelial cells); increasing concentrations up to 100 μM; mean ± SD of at least three independent experiments; read-out: Normal Human Cell Lines, CC50, HMLE
Method: (§1) All compounds were also evaluated for their cytotoxic activity against two non-tumoral human cell lines named human mammary epithelial cell (HMLE) and L02 (a human liver cell line) in Table 2 and SI values between the CC50 in non-tumoral cell lines and IC50 in tumoral cells calculated.
(§2) HepG2 and MCF7 cells were grown in the Eagle’s minimum essential medium with Earle’s balanced salts (MEM-EBSS) medium, HeLa, A549 and L02 cells were grown in Dulbecco’s Modified Eagle Media (DMEM), SW1990 cells were grown in RPMI-1640 medium, and HMLE cell were grown in DMEM/F-12 medium. […]
(§3) Cells were seeded into 96-well plates (4000 cells/well) and incubated at 37 °C in a humidified 5% CO2 atmosphere. After 24 h, the cells were treated with different concentrations of the compounds for 48 h in triplicate to generate dose-response curves. Cell viability was evaluated using the sulforhodamine B (SRB) assay as previous described. […] Etoposide was used as the positive control.

[2] = Cytotoxicity (SRB) against non-tumoral L02 cells; type: cell-based, human; settings: human, L02 cells (non-tumoral human liver cell line); increasing concentrations up to 100 μM; mean ± SD of at least three independent experiments; read-out: Normal Human Cell Lines, CC50, L02
Method: as §1, §2, §3

MCF-7 cells = assay: In vitro anti-proliferative SRB assay, MCF-7; type: cell-based, human; settings: Homo sapiens, MCF7; increasing concentrations up to 30 μM; mean ± SD of at least three independent experiments
Method: as §2
(§4) Cells were seeded into 96-well plates (4000 cells/well) and incubated at 37 °C in a humidified 5% CO2 atmosphere. After 24 h, the cells were treated with different concentrations of the compounds for 48 h in triplicate to generate dose-response curves. Cell viability was evaluated using the sulforhodamine B (SRB) assay as previous described.

HepG2 cells = assay: In vitro anti-proliferative SRB assay, HepG2; type: cell-based, human; settings: Homo sapiens; for inhibition at 10 µM: HepG2 cells, SRB assay, mean ± SD of three independent experiments
Method: as §2, §4

SW1990 cells = assay: In vitro anti-proliferative SRB assay, SW1990; type: cell-based, human; settings: Homo sapiens, SW1990; increasing concentrations up to 30 μM; mean ± SD of at least three independent experiments
Method: as §2, §4

A549 cells = assay: In vitro anti-proliferative SRB assay, A549; type: cell-based, human; settings: Homo sapiens, A549; increasing concentrations up to 30 μM; mean ± SD of at least three independent experiments
Method: as §2, §4

HeLa cells = assay: In vitro anti-proliferative SRB assay, HeLa; type: cell-based, human; settings: Homo sapiens, HeLa; increasing concentrations up to 30 μM; mean ± SD of at least three independent experiments
Method: as §2, §4

| SMILES | inhibition at 10 µM (HepG2 cells) [%] | melting point [°C] | further results |
| --- | --- | --- | --- |
| COc1cc([C@@H]2c3cc4c(cc3[C@@H](O[C@@H]3O[C@@H]5CO[C@@H](C)O[C@H]5[C@H](O)[C@H]3O)[C@H]3COC(=O)[C@H]23)OCO4)cc(OC)c1O [Etoposide, reference compound] | 63.9 ± 0.1 | – | CC50 at 48 h [1]: 6.42 ± 0.39 µM; CC50 at 48 h [2]: > 100 µM; IC50 (MCF-7 cells): 20.6 ± 0.34 µM; IC50 (HepG2 cells; HepG2, increasing concentrations up to 30 μM, mean ± SD of at least three independent experiments): 5.11 ± 0.45 µM; IC50 (SW1990 cells): 29.3 ± 1.73 µM; IC50 (A549 cells): 3.23 ± 0.28 µM; IC50 (HeLa cells): 3.96 ± 0.17 µM |
| COc1ccc(C(=O)/C=C/c2ccccc2)cc1 [a1, (E)-1-(4-Methoxyphenyl)-3-phenylprop-2-en-1-one] | 42.4 ± 2 | – | – |
| COc1ccc(C(=O)/C=C/c2ccc(Br)cc2)cc1 [a2, (E)-1-(4-Methoxyphenyl)-3-(4-bromophenyl)prop-2-en-1-one] | 37.6 ± 4.4 | 153.7 to 155.1 | – |
| COc1ccc(C(=O)/C=C/c2ccc(Br)cc2F)cc1 [a3, (E)-1-(4-Methoxyphenyl)-3-(4-bromo-2-fluorophenyl)prop-2-en-1-one] | 41.8 ± 5.9 | 122.2 to 123.6 | – |
| COc1ccc(C(=O)/C=C/c2ccc(F)cc2Br)cc1 [a4, (E)-1-(4-Methoxyphenyl)-3-(2-bromo-4-fluorophenyl)prop-2-en-1-one] | 41.2 ± 4.6 | 98.7 to 101 | – |
| COc1ccc(C(=O)/C=C/c2ccc(Br)cc2Cl)cc1 [a5, (E)-1-(4-Methoxyphenyl)-3-(4-bromo-2-chlorophenyl)prop-2-en-1-one] | 9 ± 5.6 | 145.3 to 146.4 | – |
| COc1ccc(C(=O)/C=C/c2ccc([N+](=O)[O-])cc2)cc1 [a6, (E)-1-(4-Methoxyphenyl)-3-(4-nitrophenyl)prop-2-en-1-one] | 9.8 ± 5 | – | – |
| COc1ccc(C(=O)/C=C/c2ccccc2OC)cc1 [a8, (E)-1-(4-Methoxyphenyl)-3-(2-methoxyphenyl)prop-2-en-1-one] | 61.4 ± 3.4 | 43.2 to 45.5 | – |
| COc1ccc(C(=O)/C=C/c2cccc(OC)c2)cc1 [a9, (E)-1-(4-Methoxyphenyl)-3-(3-methoxyphenyl)prop-2-en-1-one] | 59 ± 2.9 | 95.7 to 97 | – |
| COc1ccc(/C=C/C(=O)c2ccc(OC)cc2)cc1 [a10, (E)-1,3-bis(4-Methoxyphenyl)prop-2-en-1-one] | 27.7 ± 17.7 | – | – |
| CCOc1ccc(/C=C/C(=O)c2ccc(OC)cc2)cc1 [a11, (E)-1-(4-Methoxyphenyl)-3-(4-ethoxyphenyl)prop-2-en-1-one] | 13.1 ± 8.4 | 106.3 to 107.9 | – |
